# “And” between values parts separate entries of the source, which are not always exact repeats. Identical values can stand only once. Like-named read-outs stand apart in the source and are kept apart here.
# What was measured:
# alkaline phosphatase [1] = assay: Alkaline phosphatase experiment, ninth week: microcentrifuge tubes vs glass vials; type: biochemical; details: ethanol alkaline phosphatase 1:100, 4 hours room temperature, 1-hour PNPP
# Experimental: Feb. […] The test chemicals included water, acetic acid, heptanal, dimethylisopropylamine, n-Heptylamine, and N,N-Dimethylbenzylamine. We believe that when tilting the glass vial to mix by pipette/re-pipette, the alkaline phosphatase is sticking to the sides and therefore when the p-Nitrophenyl phosphate disodium salt (PNPP) is added, it immediately detects alkaline phosphatase presence and turns intensely yellow. In addition, by sticking to the side of the vial, since the volume of the test chemical added is low, the chance the test chemical interacting with the alkaline phosphatase might be less, therefore resulting in an intensely yellow enzyme reaction product. This study focused on the two stocks (one from previous experiment and a freshly made one) 1:100 concentration ethanol alkaline phosphatase reaction reagent. […] For the 4 mL vials, 30 μL of the test chemical is added to 300 μL of the alkaline phosphatase reaction reagent and incubated for 4 hours at room temperature.
# phosphatase = type: biochemical, porcine
# Experimental: Our next studies involved applying the test substance (500 μL) directly to the epidermis side of previously frozen porcine skin (Spear Products, Coopersburg, PA) that is placed in a holder that only exposes the epidermis side for 30 minutes, adding phosphate buffered saline (PBS) with added sodium azide (metabolic inhibitor that ensure no viable tissue), then aliquoting into cuvettes to read at an optical density of 300 nm. […] So, at the end of the initial studies described above, almost out of frustration, we tried to probe for released phosphatase activity using p-Nitrophenyl phosphate disodium salt (PNPP; Sigma Aldrich, St. Louis, MO) substrate solution to detect any presence of phosphatase.
# Preparation • 1. Thaw 2 pieces of frozen porcine skin • a. Punch out as many skin discs and mount in holders • 2. Label cuvettes (3 for each chemical) Procedure • 1. Add 500 μL of test chemical to holder; incubate at room temperate for 30 minutes • 2. After 30 minutes, add 2 mL of PBS-Azide to both the holder containing the test chemical; forcefully pipette and re-pipette 10 times • 3. From the holder, aliquot 400 μL into 3 cuvettes; forcefully pipette and re-pipette 3 times before dispensing into cuvettes Reading Results • 1. Measure at OD300 for all cuvettes
# Skin corrosion by GHS Category 1 dermal corrosive chemicals results in the disintegration of the epidermis into the dermis.
# porcine skin = details: R 1 and 2
# Experimental: Our initial studies involved using fresh and frozen porcine skin “buttons”. These buttons were punched out of porcine skin (Spear Products, Cooopersburg, PA) using a […] biopsy punch tool. Three different kinds of skin buttons were prepared from fresh porcine skin, frozen porcine skin, and frozen porcine skin with the fatty layer removed. […] The next day, the tubes were taken out and vortexed and 500 μL of the solution was aliquoted into cuvettes to read at three different optical density wavelengths (OD190, OD290, OD300) to evaluate the best response.
# Skin Preparation • 1. Thaw 2 pieces of frozen porcine skin • 2. Punch out buttons: 24 buttons in each tube filled with 40 mL PB S-Azide 96-well plate Preparation • 1. Plate layout for dosing:
# Procedure • 1. Dose each tissue with 140 μL of test chemical • 2. […] Take out of incubator and vortex pulse 3× • 2. Aliquot 500 μL to cuvette and read results at OD190, OD290, and OD300
# There were three readings done at an optical density of 190, 290, and 300 nm to evaluate the best response. […] To address the variable exposure conditions, our next studies involved placing a larger porcine skin section into a holder that exposes only the epidermis side with no potential for test chemical exposure from the backside or through the sides.
# skin = details: rabbit, in vivo; cited from earlier work
# alkaline phosphatase [2] = type: biochemical
# Experimental: New stocks were made the of the 1:100 alkaline phosphatase reaction reagents.
# The conditions included: 1:100 dilution of alkaline phosphatase reaction reagent with two solvents (buffered saline and ethanol), dosing in 0.5 mL microcentrifuge tubes with 20 μL of chemical added to 180 μL of reaction reagent, and incubating with p-Nitrophenyl phosphate disodium salt (PNPP) substrate for 1-hour.
# [3] = frozen porcine skin with fat layer removed
structure (smiles),measurement,setting,value
CCCCCCC=O [Heptanal],"OD405 readings, glass vials (FIG. 12B)",alkaline phosphatase [1],0.804 and 0.852 and 0.901
same,"OD405 readings, microcentrifuge tubes (FIG. 12B)",alkaline phosphatase [1],2.360 and 2.539 and 2.690
same,"percent of phosphatase measured (optical density compared to the naïve condition), average",phosphatase; average of two readings,97.2%
same,percent of phosphatase measured (optical density compared to the naïve condition),phosphatase; single readings,100.0% and 94.4%
same,OD190,"porcine skin; fresh porcine skin, 140 μL test chemical, >3A = outside readable range",0.486 and 0.365
same,OD290,porcine skin; fresh porcine skin,0.170 and 0.165
same,OD300,porcine skin; fresh porcine skin,0.123
same,OD190,porcine skin; [3],0.144 and 0.149
same,OD290,porcine skin; [3],0.111 and 0.140
same,OD300,porcine skin; [3],0.040 and 0.050
same,OD190,porcine skin; frozen porcine skin,0.362 and 0.371
same,OD290,porcine skin; frozen porcine skin,0.245 and 0.241
same,OD300,porcine skin; frozen porcine skin,0.154 and 0.137
same,Corrosive,skin,No
same,in vivo GHS,skin,Cat. 2
same,A2 - Results AVG,alkaline phosphatase [2],2.408
same,A2 - Results R1,alkaline phosphatase [2],2.730
same,A2 - Results R3,alkaline phosphatase [2],2.098

# From patent US12559784B2 (priority 2023, dated 2026)
